# Assay results published in publication PMC9917862 (International Journal of Molecular Sciences, 2023).
# “Also recorded” adds a separate entry of the source. Like-named read-outs stand apart in the source and are kept apart here.
# Legend:
# [1] = Aqueous stability of MOLNU followed by 1H NMR; assay type: physicochemical; conditions: 25 °C; for hydrolyzed products: in 5 days
# Protocol: Molnupiravir, one of the title compounds, contains an ester functional group that may hydrolyze under certain conditions. Therefore, the aqueous stability of MOLNU was investigated as a first step at pH 2.0, 7.4, and 12.0 by ^1H NMR spectroscopy.
# ^1H NMR spectroscopic measurements were carried out on a Bruker Avance III HD instrument (Billerica, MA, USA). The spectra were recorded with WATERGATE water suppression pulse sequence using DSS internal standard and 10% (v/v) D2O. Aqueous stability of MOLNU was followed at pH 2.0, 7.4 and 12.0.
# [2] = Proton dissociation constants by pH-potentiometry; assay type: physicochemical
# Protocol: pH-potentiometric titrations of the antiviral agents were carried out similarly to our former works.
# [3] = Proton dissociation constants by UV-vis titration; assay type: physicochemical
# Protocol: An Agilent Carry 8454 diode array spectrophotometer was used to obtain UV-vis spectra in the interval 190–1100 nm, the path length (l) was 1 cm. The spectrophotometric titrations were performed with samples containing 25–200 μM compound over the pH range 2.0–11.5 at an ionic strength of 0.10 M (KCl) and at 25 °C. Proton dissociation constants together with the individual molar absorbance spectra were calculated with the computer program PSEQUAD [52]. The program requires the following input data: measured spectra together with the corresponding pH and analytical (total) concentration of the compounds; species matrix, with approximate protonation constant(s) and the absorbing species need to be defined. The Newton–Raphson iterative method was used to obtain protonation constant(s) with standard deviations and molar spectra of the individual species.
# [4] = Calculated distribution of species in different protonation states; assay type: physicochemical
# [5] = molecular target: T1, human serum albumin (HSA) (Homo sapiens, UniProt P02768); assay: Ultrafiltration-UV-vis with HSA; assay type: in vitro ADME; conditions: for protein bound fraction: pH 7.4 (PBS), 25 °C
# T1 construct: purchased Sigma–Aldrich A8763
# T1 sequence (P02768 25-609): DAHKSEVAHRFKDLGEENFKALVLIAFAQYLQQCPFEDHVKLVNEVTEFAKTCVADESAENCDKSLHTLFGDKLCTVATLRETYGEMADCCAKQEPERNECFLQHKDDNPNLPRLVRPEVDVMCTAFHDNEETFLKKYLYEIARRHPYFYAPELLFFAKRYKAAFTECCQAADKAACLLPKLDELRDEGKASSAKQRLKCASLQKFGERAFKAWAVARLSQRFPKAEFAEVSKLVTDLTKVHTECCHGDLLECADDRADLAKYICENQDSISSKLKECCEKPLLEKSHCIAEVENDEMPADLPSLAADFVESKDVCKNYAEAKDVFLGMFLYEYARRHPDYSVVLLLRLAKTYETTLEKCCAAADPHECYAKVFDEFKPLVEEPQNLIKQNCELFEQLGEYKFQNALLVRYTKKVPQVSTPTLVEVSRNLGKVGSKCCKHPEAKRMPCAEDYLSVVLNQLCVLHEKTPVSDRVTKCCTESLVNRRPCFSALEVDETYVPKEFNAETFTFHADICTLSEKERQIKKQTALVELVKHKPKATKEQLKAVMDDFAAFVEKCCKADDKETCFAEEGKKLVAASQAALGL
# HSA = molecular target: T2, HSA (Homo sapiens, UniProt P02768); assay: Hydrolysis of MOLNU in the presence of HSA, 1H NMR; assay type: in vitro ADME; conditions: HSA 630 μM; 1 mM MOLNU; PBS
# T2 construct: purchased Sigma–Aldrich A8763
# T2 sequence (P02768 25-609): as above
# human transferrin = molecular target: T3, human transferrin (Homo sapiens, UniProt P02787); assay: Hydrolysis of MOLNU in the presence of transferrin, 1H NMR; assay type: in vitro ADME; conditions: 45 μM human transferrin; same behavior = no hydrolysis as with HSA
# T3 construct: purchased Sigma–Aldrich T3309
# T3 sequence (P02787 20-698): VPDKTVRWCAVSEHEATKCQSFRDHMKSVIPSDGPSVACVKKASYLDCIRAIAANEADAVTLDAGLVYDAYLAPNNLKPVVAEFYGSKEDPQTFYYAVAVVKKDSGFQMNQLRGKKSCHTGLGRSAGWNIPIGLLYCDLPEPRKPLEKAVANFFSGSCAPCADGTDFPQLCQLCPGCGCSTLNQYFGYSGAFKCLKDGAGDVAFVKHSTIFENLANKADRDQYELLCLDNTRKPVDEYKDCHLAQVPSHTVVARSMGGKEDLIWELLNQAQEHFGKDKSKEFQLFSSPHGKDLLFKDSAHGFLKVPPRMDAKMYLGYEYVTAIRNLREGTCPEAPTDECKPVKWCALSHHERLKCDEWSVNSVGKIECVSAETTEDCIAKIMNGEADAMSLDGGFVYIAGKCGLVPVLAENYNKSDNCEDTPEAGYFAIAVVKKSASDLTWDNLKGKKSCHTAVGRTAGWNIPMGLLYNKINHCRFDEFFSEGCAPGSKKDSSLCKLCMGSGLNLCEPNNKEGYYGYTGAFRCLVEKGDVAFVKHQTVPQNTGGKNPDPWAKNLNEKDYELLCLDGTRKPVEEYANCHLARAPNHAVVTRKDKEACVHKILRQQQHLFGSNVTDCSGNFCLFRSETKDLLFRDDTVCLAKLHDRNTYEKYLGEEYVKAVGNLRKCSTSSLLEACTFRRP
# [6] = molecular target: T4, α1-acid glycoprotein (AGP) (Homo sapiens, UniProt P02763); assay: Steady-state fluorometry, quenching of AGP fluorescence; assay type: binding; conditions: for quenching of the fluorescence of AGP: pH 7.4 (PBS), 25 °C
# T4 construct: purchased Sigma–Aldrich G9885
# T4 sequence (P02763 19-201): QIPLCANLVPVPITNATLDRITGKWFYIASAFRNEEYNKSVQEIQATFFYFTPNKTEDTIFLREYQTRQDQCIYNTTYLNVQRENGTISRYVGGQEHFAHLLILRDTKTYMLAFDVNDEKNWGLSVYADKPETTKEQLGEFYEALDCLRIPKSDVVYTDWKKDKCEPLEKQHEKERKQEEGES
# [7] = molecular target: T5, human serum albumin (HSA), site I (Trp-214) (Homo sapiens, UniProt P02768); assay: Steady-state fluorometry, quenching of HSA Trp-214 fluorescence; assay type: binding; conditions: pH 7.4 (PBS), 25 °C
# T5 construct: purchased Sigma–Aldrich A8763
# T5 sequence (P02768 25-609): as the sequence (P02768 25-609) above
# HSA site I = molecular target: T6, HSA site I (Homo sapiens, UniProt P02768); assay: Warfarin (WF) site marker displacement from HSA; assay type: binding; conditions: HSA-WF 1:1; pH 7.4 (PBS); 25 °C
# T6 construct: purchased Sigma–Aldrich A8763
# T6 sequence (P02768 25-609): as above
# HSA site II = molecular target: T7, HSA site II (Homo sapiens, UniProt P02768); assay: Dansylglycine (DG) site marker displacement from HSA; assay type: binding
# T7 construct: purchased Sigma–Aldrich A8763
# T7 sequence (P02768 25-609): as above
# [8] = test system: human blood serum (HMM fraction); conditions: pH 7.4
# physchem [9] = conditions: pH 2, thermodynamic from solid
# physchem [10] = conditions: pH 2, logD2.0
# [11] = Aqueous stability of FAVI and IMA followed by UV-vis spectra; assay type: physicochemical; conditions: pH 2 and 7.4; 25 °C
# [12] = molecular target: T4, α1-acid glycoprotein (AGP); assay: Frontal analysis capillary electrophoresis (FACE) with AGP; assay type: binding; conditions: pH 7.4 (PBS); 25 °C
# [13] = molecular target: T1, human serum albumin (HSA); assay: Frontal analysis capillary electrophoresis (FACE) with HSA; assay type: binding
# [14] = molecular target: T4, α1-acid glycoprotein (AGP); assay: Dipyridamole (DIP) displacement from AGP, fluorescence anisotropy; assay type: binding; conditions: cAGP = 2.0 μM; cDIP = 1.0 μM; pH 7.4 (PBS); 25 °C
# [15] = test system: α1-acid glycoprotein (AGP); conditions: human
# HSA + AGP = conditions: human, 200 μM, pH 7.4
# physchem [16] = assay: physchem
# physchem [17] = assay: physchem; remark: listed apart in the source
# human serum proteins = conditions: cited from earlier work
# plasma protein = conditions: cited from earlier work
# [18] = cited from earlier work
# AGP [19] = conditions: pH 4.95 (acetate), 25 °C, ITC; cited from earlier work
# AGP [20] = conditions: pH 4.95 (acetate), 25 °C, NMR spin-lattice relaxation times; cited from earlier work
# AGP [21] = conditions: cited from earlier work
# AGP (native) = conditions: cited from earlier work
# AGP (F1-S) = conditions: pH 7.4 (ringer), 37 °C, circular dichroism; cited from earlier work
# HSA (fatty acid free) = conditions: pH 7; cited from earlier work
# [22] = pH 2.0, calculated from pKa values
# [23] = pH 7.4, calculated from pKa values
# [24] = pH 7.4, using pKa4 = 7.7 determined by Szakács et al. [48]
structure (smiles),measurement,setting,value
"CC(C)C(=O)OC[C@H]1O[C@@H](n2ccc(NO)nc2=O)[C@H](O)[C@@H]1O [MOLNU, molnupiravir]",hydrolyzed products,[1]; pH 2.0,8%
same,hydrolyzed products,[1]; pH 7.4,2%
same,time within which MOLNU hydrolyzes completely to isobutyrate and EIDD-1931,"[1]; pH 12.0, cMOLNU = 1 mM",≤ 30 min
same,pKa,[2]; pKa1 (pHm),2.14
same,pKa,[2]; pKa2 (pHm),10.2
same,pKa,[3]; pKa1 (UV-vis),2.11
same,pKa,[3]; pKa2 (UV-vis),10.3
same,species H2L+,[4]; [22],58%
same,species HL,[4]; [22],42%
same,species HL,[4]; [23],HL: 100%
same,protein bound fraction,"[5]; HSA 630 μM, 30 μM compound",< 2%
same,hydrolysis of MOLNU within two days,HSA,Neither of the two media could induce hydrolysis; also recorded: could not hydrolyze the ester bond
same,hydrolysis of MOLNU within two days,human transferrin,The same behavior was observed
same,quenching of the fluorescence of AGP,[6],did not quench
same,quenching of HSA (Trp-214) fluorescence,[7],did not significantly quench
same,displacement of WF from HSA site I,HSA site I,no competition
same,displacement of DG from HSA site II,"HSA site II; HSA-DG 1:1, pH 7.4 (PBS), 25 °C",could not displace DG
same,protein bound fraction,[8]; 30 μM,less than 2%
same,solubility thermodynamic,physchem [9],≥ 10 mM
same,logD at 2 h,physchem [10],-0.68 ± 0.02
"NC(=O)c1nc(F)c[nH]c1=O [FAVI, favipiravir]",stable in aqueous media at least for,[11],≥ 30 h
same,pKa,[2]; pKa1 (pHm),5.11
same,pKa,[3]; pKa1 (UV-vis),5.08
same,species L−,[4]; [23],L^−:100%
same,protein bound fraction,"[5]; HSA 50 μM, 50 μM compound, IMA corrected for 85% filter adhesion",< 2%
same,protein bound fraction,"[5]; HSA 630 μM, 200 μM compound",< 2%
same,bound fraction,[5]; different concentrations of HSA,less than 2%
same,binding to AGP in FACE,[12],neither of the two proteins are involved in binding of FAVI
same,binding to HSA in FACE,"[13]; up to 5 equiv. albumin, pH 7.4 (PBS), 25 °C",neither of the two proteins are involved in binding of FAVI
same,quenching of the fluorescence of AGP,[6]; 91 equiv. of compound,6%
same,quenching of the fluorescence of AGP,[6],did not quench
same,quenching of HSA (Trp-214) fluorescence,[7],did not significantly quench
same,quenching of HSA (Trp-214) fluorescence,[7]; listed as Favipiravir,did not quench
same,displacement of DIP from AGP,[14],no interaction between the studied species takes place
same,displacement of WF from HSA site I,HSA site I,no competition
same,protein bound fraction,[8]; 200 μM,22 ± 2%
same,bound fraction,[15],less than 2%
same,protein bound fraction,[15]; 25 μM,< 2%
same,protein bound fraction,[15]; 50 μM,< 2%
same,protein bound fraction,[15]; 100 μM,< 2%
same,protein bound fraction,[15]; 200 μM,< 2%
same,protein bound fraction,HSA + AGP,2 ± 1%
same,solubility thermodynamic,physchem [9],≥ 10 mM
same,pKa,physchem [16],5.17
same,pKa,physchem [17],5.1
same,logD at 2 h,physchem [10],0.15
same,binding attributed to AGP,human serum proteins,6.5%
same,binding attributed to HSA,human serum proteins,65%
"O=c1nc(NO)ccn1[C@@H]1O[C@H](CO)[C@@H](O)[C@H]1O [EIDD-1931, N(4)-hydroxycytidine]",plasma protein binding,plasma protein,No plasma protein binding was observed
"Cc1ccc(NC(=O)c2ccc(CN3CCN(C)CC3)cc2)cc1Nc1nccc(-c2cccnc2)n1 [IMA, imatinib]",stable in aqueous media at least for,[11],≥ 30 h
same,pKa,"[2]; I = 0.1 M (KCl), 25 °C, read-out: pKa2 (pHm)",3.06
same,pKa,"[2]; I = 0.1 M (KCl), 25 °C, read-out: pKa3 (pHm)",3.86
same,pKa,"[2]; I = 0.1 M (KCl), 25 °C, read-out: pKa4 (pHm)",> 7
same,pKa,"[3]; I = 0.1 M (KCl), 25 °C, read-out: pKa1 (UV-vis)",1.72
same,species H2L2+,[4]; [22],H2L^2+: 5%
same,species H3L3+,[4]; [22],62%
same,species H4L4+,[4]; [22],33%
same,species HL+,[4]; [23],76%
same,species HL+,[4]; [24],67%
same,species L,[4]; [24],33%
same,binding to HSA in FACE,[13]; pH 7.4,no considerable binding
same,"ΔlogK′, effect of long-term storage of AGP in plastic microtubes",[6],0.2
same,displacement of DG from HSA site II,HSA site II; pH 7.4,unable to displace DG
same,pKa4,"[18]; pH-potentiometry, I = 0.15 M NaCl, ref 48 (Szakács et al.)",7.7
same,pKa,physchem [17],7.9
same,K′,AGP [19],8.7 × 10^2
same,logK′,AGP [19],2.94
same,logK′,AGP [20],3.51
same,logK′,AGP [21],6.69
same,logK′,"AGP (native); AGP (native), pH 7.4 (ringer), 37 °C, circular dichroism",6.38
same,K′,AGP (native); pH 7.4,2.4 × 10^6 1.7 × 10^6
same,logK′,AGP (F1-S),6.23
same,K′,HSA (fatty acid free),1.2 × 10^5 1.0 × 10^5
CC(C)C(=O)O [isobutyric acid],pKa,[18]; I = 0.1 M NaNO3,4.67
